# Measurements as given in patent US6613718B2, “Aryl ether derivatives and processes for their preparation and herbicidal and desiccant compositions containing them” (Ishihara Sangyo Kaisha, Ltd., priority 2001, dated 2003).
# What was measured:
# Format in all cases: in vivo
# Conditions in all cases: 14 days after application
# [1] = test system: upland rice (Oryza sp., var.Tebonnet, RICE); test: Pre-emerge greenhouse screening, crop safety (phytotoxicity rating)
# Summary of the method: (§1)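 Pre-emerge: seeds sown 1 day before spray; acetone solutions, 15–1000 g ai/ha, track sprayer; soil watered after application, then bottom-watered. Post-emerge: plants at 2-3 leaf stage (sown 8-21 days prior), 0.25% v/v non-ionic surfactant added, bottom-watered only. Rated 0-100 at 14 DAA.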
# [2] = test system: field corn (Zea mays L., var. Dekalb 535, CORN); test: as above
# Summary of the method: as §1
# [3] = test system: soybean (Glycine max L., var. Pella 86, SOY); test: as above
# Summary of the method: as §1
# [4] = test system: field corn (Zea mays L., var. Dekalb 535, CORN); test: Post-emerge greenhouse screening, crop safety / corn selectivity (phytotoxicity rating)
# Summary of the method: as §1
# [5] = test system: ivyleaf morningglory (Ipomoea hederacea, IPOHE); test: Pre-emerge greenhouse herbicide activity screening, phytotoxicity rating
# Summary of the method: as §1
# [6] = test system: johnsongrass (Sorghum halepense, SORHA); test: as above
# Summary of the method: as §1
# [7] = test system: redroot pigweed (Amaranthus retroflexus, AMARE); test: as above
# Summary of the method: as §1
# [8] = test system: barnyardgrass (Echinochloa crus-galli, ECHCG); test: as above
# Summary of the method: as §1
# [9] = test system: green foxtail (Setaria viridis, SETVI); test: as above
# Summary of the method: as §1
# [10] = test system: sicklepod (Cassia obtusifolia, CASOB); test: as above
# Summary of the method: as §1
# [11] = test system: common ragweed (Ambrosia artemisiifolia L., AMBEL); test: as above
# Summary of the method: as §1
# [12] = test system: lambsquarters (Chenopodium album, CHEAL); test: as above
# Summary of the method: as §1
# [13] = test system: velvetleaf (Abutilon theophrasti, ABUTH); test: as above
# Summary of the method: as §1
# [14] = test system: large crabgrass (Digitaria sanguinalis, DIGSA); test: as above
# Summary of the method: as §1
# [15] = test system: ivyleaf morningglory (Ipomoea hederacea, IPOHE); test: Post-emerge greenhouse herbicide activity screening, phytotoxicity rating
# Summary of the method: as §1
# [16] = test system: johnsongrass (Sorghum halepense, SORHA); test: as above
# Summary of the method: as §1
# [17] = test system: redroot pigweed (Amaranthus retroflexus, AMARE); test: as above
# Summary of the method: as §1
# [18] = test system: barnyardgrass (Echinochloa crus-galli, ECHCG); test: as above
# Summary of the method: as §1
# [19] = test system: green foxtail (Setaria viridis, SETVI); test: as above
# Summary of the method: as §1
# [20] = test system: sicklepod (Cassia obtusifolia, CASOB); test: as above
# Summary of the method: as §1
# [21] = test system: common ragweed (Ambrosia artemisiifolia L., AMBEL); test: as above
# Summary of the method: as §1
# [22] = test system: lambsquarters (Chenopodium album, CHEAL); test: as above
# Summary of the method: as §1
# [23] = test system: velvetleaf (Abutilon theophrasti, ABUTH); test: as above
# Summary of the method: as §1
# [24] = test system: large crabgrass (Digitaria sanguinalis, DIGSA); test: as above
# Summary of the method: as §1
# [25] = test system: upland rice (Oryza sp., var.Tebonnet, RICE); test: Post-emerge greenhouse screening, crop safety (phytotoxicity rating)
# Summary of the method: as §1
# [26] = test system: soybean (Glycine max L., var. Pella 86, SOY); test: as above
# Summary of the method: as §1
smiles,measurement,setting,value
COc1ccc(Oc2cc(-n3c(=O)cc(C(F)(F)F)n(C)c3=S)c(F)cc2C#N)cc1 [Compound 1-72],"RICE crop damage, phytotoxicity rating (0-100 scale)",[1]; 125 g ai/ha,0
same,"RICE crop damage, phytotoxicity rating (0-100 scale)",[1]; 250 g ai/ha,0
same,"CORN crop damage, phytotoxicity rating (0-100 scale)",[2]; 125 g ai/ha,5
same,"CORN crop damage, phytotoxicity rating (0-100 scale)",[2]; 250 g ai/ha,8
same,"SOY crop damage, phytotoxicity rating (0-100 scale)",[3]; 125 g ai/ha,0
same,"SOY crop damage, phytotoxicity rating (0-100 scale)",[3]; 250 g ai/ha,40
same,"CORN crop damage, phytotoxicity rating (0-100 scale)",[4]; 125 g ai/ha,0
same,"CORN crop damage, phytotoxicity rating (0-100 scale)",[4]; 250 g ai/ha,0
same,IPOHE phytotoxicity rating (0-100 scale),[5]; 125 g ai/ha,95
same,IPOHE phytotoxicity rating (0-100 scale),[5]; 250 g ai/ha,100
same,SORHA phytotoxicity rating (0-100 scale),[6]; 125 g ai/ha,60
same,SORHA phytotoxicity rating (0-100 scale),[6]; 250 g ai/ha,60
same,AMARE phytotoxicity rating (0-100 scale),[7]; 125 g ai/ha,100
same,AMARE phytotoxicity rating (0-100 scale),[7]; 250 g ai/ha,100
same,ECHCG phytotoxicity rating (0-100 scale),[8]; 125 g ai/ha,20
same,ECHCG phytotoxicity rating (0-100 scale),[8]; 250 g ai/ha,80
same,SETVI phytotoxicity rating (0-100 scale),[9]; 125 g ai/ha,20
same,SETVI phytotoxicity rating (0-100 scale),[9]; 250 g ai/ha,80
same,CASOB phytotoxicity rating (0-100 scale),[10]; 125 g ai/ha,65
same,CASOB phytotoxicity rating (0-100 scale),[10]; 250 g ai/ha,100
same,AMBEL phytotoxicity rating (0-100 scale),[11]; 125 g ai/ha,95
same,AMBEL phytotoxicity rating (0-100 scale),[11]; 250 g ai/ha,95
same,CHEAL phytotoxicity rating (0-100 scale),[12]; 125 g ai/ha,100
same,CHEAL phytotoxicity rating (0-100 scale),[12]; 250 g ai/ha,100
same,ABUTH phytotoxicity rating (0-100 scale),[13]; 125 g ai/ha,100
same,ABUTH phytotoxicity rating (0-100 scale),[13]; 250 g ai/ha,100
same,DIGSA phytotoxicity rating (0-100 scale),[14]; 125 g ai/ha,95
same,DIGSA phytotoxicity rating (0-100 scale),[14]; 250 g ai/ha,99
same,IPOHE phytotoxicity rating (0-100 scale),[15]; 125 g ai/ha,60
same,IPOHE phytotoxicity rating (0-100 scale),[15]; 250 g ai/ha,60
same,SORHA phytotoxicity rating (0-100 scale),[16]; 125 g ai/ha,0
same,SORHA phytotoxicity rating (0-100 scale),[16]; 250 g ai/ha,0
same,AMARE phytotoxicity rating (0-100 scale),[17]; 125 g ai/ha,80
same,AMARE phytotoxicity rating (0-100 scale),[17]; 250 g ai/ha,90
same,ECHCG phytotoxicity rating (0-100 scale),[18]; 125 g ai/ha,0
same,ECHCG phytotoxicity rating (0-100 scale),[18]; 250 g ai/ha,0
same,SETVI phytotoxicity rating (0-100 scale),[19]; 125 g ai/ha,0
same,SETVI phytotoxicity rating (0-100 scale),[19]; 250 g ai/ha,0
same,CASOB phytotoxicity rating (0-100 scale),[20]; 125 g ai/ha,0
same,CASOB phytotoxicity rating (0-100 scale),[20]; 250 g ai/ha,0
same,AMBEL phytotoxicity rating (0-100 scale),[21]; 125 g ai/ha,0
same,AMBEL phytotoxicity rating (0-100 scale),[21]; 250 g ai/ha,0
same,CHEAL phytotoxicity rating (0-100 scale),[22]; 125 g ai/ha,100
same,CHEAL phytotoxicity rating (0-100 scale),[22]; 250 g ai/ha,100
same,ABUTH phytotoxicity rating (0-100 scale),[23]; 125 g ai/ha,80
same,ABUTH phytotoxicity rating (0-100 scale),[23]; 250 g ai/ha,90
same,DIGSA phytotoxicity rating (0-100 scale),[24]; 125 g ai/ha,0
same,DIGSA phytotoxicity rating (0-100 scale),[24]; 250 g ai/ha,0
same,"RICE crop damage, phytotoxicity rating (0-100 scale)",[25]; 125 g ai/ha,0
same,"RICE crop damage, phytotoxicity rating (0-100 scale)",[25]; 250 g ai/ha,0
same,"SOY crop damage, phytotoxicity rating (0-100 scale)",[26]; 125 g ai/ha,0
same,"SOY crop damage, phytotoxicity rating (0-100 scale)",[26]; 250 g ai/ha,0
